Experimental data reported in patent US20160030364A1, “Therapeutic Compositions and Uses Thereof” (MANUKA HEALTH NEW ZEALAND LIMITED, priority 2013, published 2016).

Tested on: human colorectal adenocarcinoma cells (DLD-1)
Assay: MTT proliferation assay, DLD-1 (Examples 1-2)
Assay type: cell-based
Description: Test samples shown below in Table 2 were assessed for their ability to modulate the viability and proliferation of human colorectal adenocarcinoma cells (DLD-1) as assessed by the MTT assay. A positive control, 5-fluorouracil (5-FU) was included in addition to an unsupplemented cell control (negative control) in the study. The test samples were obtained by fractionation of propolis tincture.
Test samples shown below in Table 2 were assessed for their ability to modulate the viability and proliferation of human colorectal adenocarcinoma cells (DLD-1) as assessed by the MTT assay. A positive control, 5-fluorouracil (5-FU) was included in addition to an unsupplemented cell control (negative control) in the study.
Human colorectal adenocarcinoma epithelial cell lines were revived from cryostorage and cultured in the presence of the test and reference samples. The culture conditions for the cells were those described by the supplier of the cells (ATCC). An MTT assay was then performed on the cultures to determine the effect of the samples on the cell proliferation.
Working solutions were prepared by dissolving the test fractions in 15% ethanol (ETOH)/HBSS to a concentration of 2 mg/mL solids.
• 1. Human colorectal adenocarcinoma cells (ATCC CCI-221, DLD-1). • 2. Penicillin-streptomycin solution: 10000 units/mL penicillin, 10 mg/mL streptomycin in 0.9% NaCl (Sigma Cat #P-0781). Stored at −20° C. • 3. DMEM culture medium (Invitrogen Cat #12100-046) Stored at −20° C. • 4. Trypsin-EDTA solution: 0.25% Trypsin/EDTA, Invitrogen Cat#15400054 (×10 in stock). • 5. Phosphate buffered saline (PBS) (Prepared by TBL). • 6. Hanks Balanced Salt Solution (HBSS). (GIBCO Cat No. 14185-052). Stored at 4° C. • 7. Foetal Bovine Serum (GIBCO Cat #10091-148). Stored at −20° C. • 8. MTT Reagent: 100 mg/vial, (SIGMA Cat. No. M-2128) dissolved in PBS at 10 mg/mL and stored at −20° C. 5 mg/mL MTT solution were prepared in PBS and stored at 4° C. as working solution. • 9. MTT lysis buffer: 10% sodium dodecyl sulphate (SDS)/45% Dimethyl Formamide (20 g SDS was dissolved in 100 mL of double-distilled water (DDW), and 90 mL of Dimethyl Formamide added to the SDS solution). The pH was adjusted to 4.7 by glacial acetic acid, and DDW added up to a final volume of 200 mL. • 10. 5-Fluorouracil (5-FU), (Sigma Cat. No. F-6627). Two working solutions were prepared at 150 ng/mL and 75 ng/mL, dissolved in 15% Ethanol/HBSS. Final concentrations were 7.50 ng/mL and 3.75 ng/mL.
The medium for the propagation of the colorectal adenocarcinoma (DLD-1) cells was DMEM, supplemented with penicillin-streptomycin solution (10 mL per litre). FBS was added just before use to give 10% w/v.
• 1. The human colorectal adenocarcinoma cells (DLD-1) obtained from the American Type Culture Collection USA were revived from cryostorage. • 2. Following initial propagation using the media described above (see Medium Preparation), the culture was subcultured using the trypsin-EDTA as follows. The media was removed and 5 mL of the trypsin-EDTA solution added and incubated at 37° C. for 5 min or until all the cells had detached. The trypsin was neutralised by adding an equal volume of DMEM medium and the culture centrifuged at 300 g (1200 rpm) for 5 min at 4° C. • 3. The supernatant was decanted and the cell pellets resuspended in medium DMEM, FBS (10%), penicillin (100 units/mL), streptomycin (100 μg/mL). The cells were cultured at 37° C. in 5% CO2/95% air. • 4. After reaching confluence, the cells were detached using trypsin-EDTA and centrifuged as described in 2 above. • 5. The supernatants were discarded and the cells resuspended in DMEM and supplements as described in 3 above at 1.0×10^4 cells per mL. • 6. Into each well of three 96 well plates, 180 μl of the cells (1,800 cells/well) or medium was added. The plates were incubated at 5% CO2/95% air at 37° C. for 48 h which was sufficient to allow the cells to adhere. • 7. To each well, 20 μl of each, of the test samples or positive control was added. […]

[1] = Example 2, DLD-1, sample 200 μg/mL, 24 hours incubation

O=C1C[C@@H](c2ccccc2)Oc2cc(O)cc(O)c21 [Pinocembrin, reference compound]
Mean OD (570 nm) [1]: 0.0196
inhibition at 200 µg/mL (Homo sapiens, Example 2, DLD-1, sample 200 μg/mL, 24 hours incubation): 94%

O=c1[nH]cc(F)c(=O)[nH]1 [Sample 5-FU, 5-fluorouracil, reference compound]
Mean OD (570 nm) (Example 1, DLD-1, 5-FU 7.50 ng/ml): 0.657
inhibition at 0.0075 µg/mL (Homo sapiens, Example 1, DLD-1, 5-FU 7.50 ng/ml): 6.69%

COc1cc(O)c2c(=O)cc(-c3ccccc3)oc2c1 [Tectochrysin, tectochrysin]
% inhibition [1]: 29.45%
Mean OD (570 nm) [1]: 0.2285

O=C(O)/C=C/c1ccc(O)cc1 [p-coumaric acid, para-coumaric acid, reference compound]
activity against DLD-1 (isolated from NZ propolis, data not shown in Example 2): inactive
